Assay results reported in patent US20090117155A1, “TREATMENT OF HIV-1 BY MODULATION OF VPR ACTIVATION OF THE M-CSF PROMOTER” (priority 2006, published 2009).

Columns and labels:
M-CSF promoter = M-CSF promoter luciferase reporter (pGL3-M-CSF) in primary human macrophages; type: cell-based
Method: (§1) Peripheral blood mononuclear cells (PBMC) were isolated from heparinized whole blood or buffy coats acquired from healthy seronegative blood donors by density-gradient centrifugation (Histopaque-1017, Sigma-Aldrich, St. Louis, Mo.). CD14+ monocytes were isolated from prepared PBMC using the Miltenyi AutoMACS system (Miltenyi Biotec, Auburn, Calif.). Briefly, cells were incubated with anti-CD14 monoclonal antibody-coated microbeads (Miltenyi Biotec, Auburn, Calif.) at 4° C. for 15 minutes and run on an AutoMacs separator. […] Recovered CD14+ monocytes were used immediately in transfection experiments. For macrophage preparation, PBMC were incubated in RPMI 1640 (Invitrogen, Carlsbad, Calif.) containing 20% FBS, 10% human AB serum, 2 mM L-glutamine and penicillin (50 U/ml)/streptomycin (50 μg/ml) overnight at 37° C. Adherent cells were washed 3 times with phosphate-buffered saline (PBS), removed with cold PBS 0.02% EDTA and differentiated into macrophages for 6 days in DMEM supplemented with 10% human AB serum and 2 mM L-glutamine. THP1 cells were cultivated in RPMI 1640 supplemented with 10% FBS, 2 mM L-glutamine and penicillin (50 U/ml)/streptomycin (50 μg/ml) (=complete medium).
The M-CSF promoter (−1310/+48 bp) was amplified from human genomic DNA by PCR with the primers 5′-[…]-3′ (SEQ ID NO: 20) and 5′-[…] […]-3′ (SEQ ID NO: 21). […] Amplification consisted of 30 cycles of 30 s at 94° C., 30 s at 58° C., and 6 min at 72° C. All the constructs were verified by sequencing (Nucleic Acid Facility, Jefferson University, PA USA).
(§2) THP1 cells (2×106/transfection) were transiently transfected with Effecten reagent (Qiagen, Santa Clara, Calif.) using 1 μg of plasmid DNA, 8 μl enhancer and 10 μl effectene. Cells were incubated in complete medium for 24 hours in 6-well plates. Human primary CD 14+ cells were transfected using the Human Monocyte Nucleofector Kit (Amaxa, Gaithersburg, Md.) according to the manufacturer's instructions. Briefly, 5×10^6 CD 14+ cells were resuspended in 100 μl of nucleofector solution (Amaxa) with 5 μg of DNA and electroporated using the program Y-001. Cells were then transferred in 1.5 ml of Human Monocyte Nucleofector medium (Amaxa) in 24-well plates for 24 hours. Human macrophages were transfected using the Human Macrophage Nucleofector Kit (Amaxa) according to the manufacturer's specifications. In brief, 0.5×10^6 macrophages were resuspended in 100 μl of nucleofector solution (Amaxa) with 5 μg of DNA and electroporated using the program Y-010. Cells were incubated for 24 hours in advanced RPMI (Invitrogen, Carlsbad, Calif.) supplemented with 10% FBS and 2 mM L-glutamine in 12-well plates. One day after transfection, cells were harvested by centrifugation and cell pellets were resuspended in 200 μl of lysis buffer (Promega). Twenty microliters of cell lysate was assayed for luciferase activity using the Luciferase Assay System (Promega). The protein concentration was determined with the BCA Protein Assay Reagent (Pierce, Rockford, Ill.) and the luciferase activity was expressed in Relative Light Unit (RLU) per μg of protein.

M-CSF = M-CSF production in culture supernatants of primary human macrophages (ELISA); type: cell-based
Method: as §1, §2
M-CSF and IL-6 production in cell culture supernatants were assessed by ELISA according to the manufacturer's instructions (R&D systems, Minneapolis, Minn.).

HIV-1 LTR = settings: Schafer et al., 2006; cited from earlier work
HIV-1 = settings: Schafer et al., 2006; cited from earlier work
mammary tumorigenesis = settings: Bcra1/p53-deficient mice, Poole et al., 2006; cited from earlier work
[1] = concentrations as high as 100 μM, in the absence of Vpr
[2] = primary macrophages co-transfected with pGL3-M-CSF and Vpr vector

CC(=O)[C@H]1CC[C@H]2[C@@H]3CCC4=CC(=O)CC[C@]4(C)[C@H]3CC[C@]12C [progesterone]
effect on M-CSF promoter activity (M-CSF promoter; primary macrophages transfected with pGL3-M-CSF, different concentrations, no Vpr): no increase

CC#C[C@]1(O)CC[C@H]2[C@@H]3CCC4=CC(=O)CCC4=C3[C@@H](c3ccc(N(C)C)cc3)C[C@@]21C [RU486, mifepristone]
inhibition at 20 µM (M-CSF promoter; Homo sapiens, Primary macrophage, 20 μM, primary macrophages co-transfected with pGL3-M-CSF and Vpr vector, read-out: inhibition of Vpr-dependent M-CSF promoter activity): > 50%
effect on basal level of M-CSF promoter activity (M-CSF promoter; [1]): did not completely inhibit
effect on Vpr-dependent M-CSF promoter activity (M-CSF promoter; [2]): dose-dependent decrease
inhibition of the Vpr effect on M-CSF production (M-CSF; 50 μM, primary macrophages co-transfected with pGL3-M-CSF and Vpr vector): total inhibition
inhibition at 10 µM (M-CSF; Homo sapiens, Primary macrophage, 10 μM, primary macrophages co-transfected with pGL3-M-CSF and Vpr vector, read-out: inhibition of Vpr induced M-CSF production): > 50%
effect on basal level M-CSF production (M-CSF; [1]): did not completely inhibit
concentration required for inhibition of M-CSF induction by Vpr (M-CSF; primary human macrophages): approximately 10 μM
effect on Vpr-dependent M-CSF production (M-CSF; [2]): dose-dependent decrease
Vpr-induced transactivation of the HIV-1 LTR (HIV-1 LTR): inhibits
viral replication in PBMCs (HIV-1): inhibits
mammary tumorigenesis (mammary tumorigenesis): prevent mammary tumorigenesis

IL-6: cytokine IL-6 used to treat primary macrophages for 24 hours
M-CSF transcription (M-CSF promoter; primary macrophages treated for 24 hours): 50.1±0.4 RLU/μg of protein
